Six molecules from patent publication US20220048919A1, “HETEROARYLDIHYDROPYRIMIDINE DERIVATIVES AND METHODS OF TREATING HEPATITIS B INFECTIONS” (Janssen Phrmaceutica NV, priority 2018, published 2022) can be followed below.

By EC50 is commonly meant the concentration giving half of the maximal effect. A low value points to higher potency in that assay. Usually CC50 stands for the concentration that lowers cell viability or growth by half. A low value points to greater toxicity to the cells.

One data set has as its system HBV. Description: Anti-HBV activity in HepG2.2.15 cells (HBV DNA in culture medium by qPCR). The class given is cell-based. Conditions: Hepatitis B virus, 144 h, 6 days of compound treatment. On the procedure:
(§1) HepG2.2.15 (the HepG2.2.15 cell line can be produced by transfection of the HepG2 cell line as described in Sells, Chen, and Acs 1987 (Proc. Natl. Acad. Sci. USA 84:1005-1009), and the HepG2 cell line is available from ATCC® under number HB-8065™).
(§2) HepG2.2.15 cells were plated into 96-well plate in 2% FBS culture medium at the density of 40,000 cells/well and 5,000 cells/well for HBV inhibitory activity and cytotoxicity determination, respectively. After incubation at 37° C., 5% CO2 overnight, cells were treated with medium containing compounds for 6 days with medium and compounds refreshed after 3 days of treatment. Each compound was tested in a 1:3 serial dilutions at 8 different concentrations in triplicate. The highest concentration of the compounds was 10 uM or 1 uM for anti-HBV activity assay and 100 uM for cytotoxicity determination.
The change of HBV DNA level induced by the compounds was assessed by quantitative real-time polymerase chain reaction (qPCR). Briefly, the HBV DNA in the culture medium was extracted using QIAamp 96 DNA Blood Kit according to the manual and then quantified by real-time PCR assay using the primers and probe in the table 1 below.
(§3) EC50 and CC50 values are calculated by the […] PRISM software.
Background: Real-time PCR tracks product formation cycle by cycle.

Data set [1] can be described thus: Cytotoxicity determination in HepG2.2.15 cells (CCK-8 cell viability). Type of data set: cell-based. As to conditions: human, 6 days of compound treatment, CCK-8 assay. On the procedure: as §1, §2
Cell viability was determined by CCK-8 assay. After 6 days of compounds treatment, 20 μl CCK-8 reagents were added to each well of cytotoxicity assay plates. Cell plates were incubated at 37° C., 5% CO2 for 2.5 h. The absorbance at 450 nm wavelength and the absorbance at 630 nm wavelength as reference was measured.
as §3
(Tetrazolium dyes change colour on reduction, which living cells bring about.)

Structures are written as SMILES.

Molecule `CCOC(=O)C1=C(CN2CCN3C(=O)N(CC(C)(C)C(=O)O)CC3(CC)C2)NC(c2nccs2)=N[C@H]1c1cccc(F)c1C` (single isomer, unassigned) [Compound 4B, 3-((S*)-7-(((S)-5-(Ethoxycarbonyl)-6-(3-fluoro-2-methylphenyl)-2-(thiazol-2-yl)-3,6-dihydropyrimidin-4-yl)methyl)-8a-ethyl-3-oxohexahydroimidazo[1,5-a]pyrazin-2(3H)-yl)-2,2-dimethylpropanoic Acid] displayed an EC50 with HBV of 0.165 µM. In data set [1], this molecule gave a CC50 at 6 days of 18.5 µM.
For the molecule `CCOC(=O)C1=C(CN2CCN3C(=O)N(CC(C)(C)C(=O)O)CC3(C)C2)NC(c2nccs2)=N[C@H]1c1cccc(F)c1C` (single isomer, unassigned) [Compound 1B], in the data set on HBV, a half-maximal effect (EC50) was put at 0.009 µM. The CC50 at 6 days in data set [1] was 24.3 µM.
In the same order, the values of `CCOC(=O)C1=C(CN2CCN3C(=O)N([C@H]4CC[C@H](C(=O)O)CC4)C[C@]3(C)C2)NC(c2nccs2)=N[C@H]1c1cccc(F)c1C` (relative stereo) [Compound 5A, (trans)-4-((S)-7-(((S*)-5-(Ethoxycarbonyl)-6-(3-fluoro-2-methylphenyl)-2-(thiazol-2-yl)-3,6-dihydropyrimidin-4-yl)methyl)-8a-methyl-3-oxohexahydroimidazo[1,5-a]pyrazin-2(3H)-yl)cyclohexanecarboxylic Acid] are 0.034 µM and 9.2 µM.
The like results for `CCOC(=O)C1=C(CN2CCN3C(=O)N(CC(C)(C)C(=O)O)C[C@]3(C)C2)NC(c2nccs2)=N[C@H]1c1cccc(F)c1Cl` (single isomer, unassigned) [Compound 2A, (S*)-3-(-7-(((R*)-6-(2-Chloro-3-fluorophenyl)-5-(ethoxycarbonyl)-2-(thiazol-2-yl)-3,6-dihydropyrimidin-4-yl)methyl)-8a-methyl-3-oxohexahydroimidazo[1,5-a]pyrazin-2(3H)-yl)-2,2-dimethylpropanoic Acid] were, in that order, 0.016 µM and 19.4 µM.
`CCOC(=O)C1=C(CN2CCN3C(=S)N(CC(C)(C)C(=O)O)CC3(C)C2)NC(c2nccs2)=N[C@H]1c1cccc(F)c1C` (single isomer, unassigned) [Compound 6A, 3-((R*)-7-(((S)-5-(Ethoxycarbonyl)-6-(3-fluoro-2-methylphenyl)-2-(thiazol-2-yl)-3,6-dihydropyrimidin-4-yl)methyl)-8a-methyl-3-thioxohexahydroimidazo[1,5-a]pyrazin-2(3H)-yl)-2,2-dimethylpropanoic Acid]: the EC50 in the data set with HBV amounted to 0.012 µM. The molecule also displayed a CC50 at 6 days in data set [1] of 13 µM.
`COC(=O)C1=C(CN2CCN3C(=O)N(CC(C)(C)C(=O)O)C[C@]3(C)C2)NC(c2nccs2)=N[C@H]1c1ccc(F)cc1Br` (relative stereo) [Compound 3A, 3-((S*)-7-(((R*)-6-(2-Bromo-4-fluorophenyl)-5-(methoxycarbonyl)-2-(thiazol-2-yl)-3,6-dihydropyrimidin-4-yl)methyl)-8a-methyl-3-oxohexahydroimidazo[1,5-a]pyrazin-2(3H)-yl)-2,2-dimethylpropanoic Acid] displayed an EC50 in the data set on HBV of 0.038 µM. This molecule also yielded a CC50 at 6 days in data set [1] of 26.7 µM.
